Experimental data reported in patent publication US7368432B2 (Xenome, Ltd., priority 1999, dated 2008).

Key:
neurotensin receptors = conditions: in vivo; cited from earlier work
CF-1 mice = conditions: mouse, in vivo

Row | Substance | potency in inhibiting pain relative to neurotensin (neurotensin receptors) | motor impairment (rotarod) (CF-1 mice)
1 | Contulakin-G | significantly more potent than neurotensin | 
2 | NGVCCGYKLCHOC [Mar1] |  | do not produce gross motor impairment or impair performance on the rotarod test
